Measurements published in PubChem BioAssay AID330 (DTP/NCI, 2004).
“And” between values parts separate entries of the source, which are not always exact repeats. Equal values may be shown once. Inconclusive results and toxic doses are left out. How the source made its calls: active means survival T/C of 150% or more; inactive means T/C below 125% in these data.

Tested on: P388 leukemia ip, CD2F1 mice, survival T/C
Test: NCI In Vivo Anticancer Drug Screen. Data for tumor model P388 Leukemia (intraperitoneal) in CD2F1 (CDF1) mice
Settings: endpoint: median survival time, higher = longer survival
Summary of the method: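 Mice carrying the transplanted tumor received test compound or vehicle. Survival was recorded in each group, and the value is the treated-group measurement divided by that of the vehicle-treated control group.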

[1] = dose: 60.0 mg/kg/injection, schedule: Q01DX005 (ip), vehicle: Klucel (hydroxypropylcellulose) (HPC)
[2] = dose: 120.0 mg/kg/injection, schedule: Q01DX005 (ip), vehicle: Klucel (hydroxypropylcellulose) (HPC)
[3] = dose: 50.0 mg/kg/injection, schedule: Q01DX009 (ip), vehicle: saline
[4] = dose: 100.0 mg/kg/injection, schedule: Q01DX009 (ip), vehicle: saline
[5] = dose: 200.0 mg/kg/injection, schedule: Q01DX009 (ip), vehicle: saline
[6] = dose: 12.5 mg/kg/injection, schedule: Q01DX009 (ip), vehicle: saline
[7] = dose: 100.0 mg/kg/injection, schedule: Q04DX003 (ip), vehicle: saline with Tween-80
[8] = dose: 200.0 mg/kg/injection, schedule: Q04DX003 (ip), vehicle: saline with Tween-80
[9] = dose: 50.0 mg/kg/injection, schedule: Q01DX009 (ip), vehicle: saline with Tween-80
[10] = dose: 100.0 mg/kg/injection, schedule: Q01DX009 (ip), vehicle: saline with Tween-80
[11] = dose: 200.0 mg/kg/injection, schedule: Q01DX009 (ip), vehicle: saline with Tween-80
[12] = dose: 60.0 mg/kg/injection, schedule: Q01DX005 (ip), vehicle: saline with Tween-80
[13] = dose: 120.0 mg/kg/injection, schedule: Q01DX005 (ip), vehicle: saline with Tween-80
[14] = dose: 240.0 mg/kg/injection, schedule: Q01DX005 (ip), vehicle: saline with Tween-80

Measured: T/C

OCC(O)C(O)C(O)C(O)CO.[Cu+2].[Cu] (configuration not stated)
inactive: dose: 3.12 mg/kg/injection, schedule: Q01DX005 (ip), vehicle: Klucel (hydroxypropylcellulose) (HPC) 88 % of control | dose: 6.25 mg/kg/injection, schedule: Q01DX005 (ip), vehicle: Klucel (hydroxypropylcellulose) (HPC) 92 % of control

c1ccc2[nH]c(CN(CCN(Cc3nc4ccccc4[nH]3)Cc3nc4ccccc4[nH]3)Cc3nc4ccccc4[nH]3)nc2c1
inactive: dose: 1.56 mg/kg/injection, schedule: Q01DX005 (ip), vehicle: DMSO 104 % of control | dose: 3.12 mg/kg/injection, schedule: Q01DX005 (ip), vehicle: DMSO 106 % of control | dose: 6.25 mg/kg/injection, schedule: Q01DX005 (ip), vehicle: DMSO 105 % of control | dose: 12.5 mg/kg/injection, schedule: Q01DX005 (ip), vehicle: DMSO 107 % of control | dose: 25.0 mg/kg/injection, schedule: Q01DX005 (ip), vehicle: DMSO 108 % of control

CNC(=O)OCCC(OC(=O)NC)C1CCC2C3CCC4CC(OC(=O)c5ccccc5)CCC4(C)C3CCC12C (configuration not stated)
inactive: [1] 107 % of control | [2] 98 % of control | dose: 240.0 mg/kg/injection, schedule: Q01DX005 (ip), vehicle: Klucel (hydroxypropylcellulose) (HPC) 93 % of control

CCNC(=O)Nc1ccc(Cl)cn1
inactive: [3] 102 % of control | [4] 105 % of control | [5] 105 % of control

O=[N+]([O-])c1nccn1CC(O)CO (configuration not stated)
inactive: [6] 103 % of control and 116 % of control | dose: 25.0 mg/kg/injection, schedule: Q01DX009 (ip), vehicle: saline 101 % of control and 121 % of control | [3] 103 % of control and 116 % of control and 98 % of control | [4] 102 % of control and 106 % of control and 116 % of control | [5] 104 % of control and 107 % of control and 121 % of control | dose: 360.0 mg/kg/injection, schedule: Q01DX001 (ip), vehicle: saline 101 % of control and 102 % of control | dose: 400.0 mg/kg/injection, schedule: Q01DX009 (ip), vehicle: saline 102 % of control and 106 % of control | dose: 600.0 mg/kg/injection, schedule: Q01DX001 (ip), vehicle: saline 100 % of control and 102 % of control | dose: 1000.0 mg/kg/injection, schedule: Q01DX001 (ip), vehicle: saline 101 % of control and 104 % of control

COc1cc(C=C(C(C)=O)C(C)=O)ccc1O
inactive: dose: 50.0 mg/kg/injection, schedule: Q04DX003 (ip), vehicle: saline with Tween-80 100 % of control | [7] 100 % of control | [8] 100 % of control

COS(=O)(=O)C(F)(F)F
inactive: dose: 100.0 mg/kg/injection, schedule: Q01DX001 (ip), vehicle: saline 111 % of control | dose: 200.0 mg/kg/injection, schedule: Q01DX001 (ip), vehicle: saline 111 % of control | dose: 400.0 mg/kg/injection, schedule: Q01DX001 (ip), vehicle: saline 111 % of control

Cc1cc(O)c2c(c1)C(=O)c1c(c(O)cc(O)c1-c1c(O)cc(O)c3c1C(=O)c1cc(C)cc(O)c1C3=O)C2=O
inactive: dose: 3.0 mg/kg/injection, schedule: Q01DX005 (ip), vehicle: Klucel (hydroxypropylcellulose) (HPC) 95 % of control | dose: 6.0 mg/kg/injection, schedule: Q01DX005 (ip), vehicle: Klucel (hydroxypropylcellulose) (HPC) 99 % of control | dose: 12.0 mg/kg/injection, schedule: Q01DX005 (ip), vehicle: Klucel (hydroxypropylcellulose) (HPC) 96 % of control | dose: 12.5 mg/kg/injection, schedule: Q01DX005 (ip), vehicle: Klucel (hydroxypropylcellulose) (HPC) 91 % of control | dose: 24.0 mg/kg/injection, schedule: Q01DX005 (ip), vehicle: Klucel (hydroxypropylcellulose) (HPC) 93 % of control | dose: 25.0 mg/kg/injection, schedule: Q01DX005 (ip), vehicle: Klucel (hydroxypropylcellulose) (HPC) 93 % of control

O=[N+]([O-])c1ccccc1C=Nc1ccc2nc(SCc3ccccc3)sc2c1
inactive: dose: 100.0 mg/kg/injection, schedule: Q04DX003 (ip), vehicle: Klucel (hydroxypropylcellulose) (HPC) 100 % of control | dose: 200.0 mg/kg/injection, schedule: Q04DX003 (ip), vehicle: Klucel (hydroxypropylcellulose) (HPC) 95 % of control | dose: 400.0 mg/kg/injection, schedule: Q04DX003 (ip), vehicle: Klucel (hydroxypropylcellulose) (HPC) 89 % of control

NN1C(=O)CCC1=O
inactive: [9] 94 % of control | [10] 97 % of control | [11] 92 % of control

CCn1c2[n+](c3ccccc31)CCC2
inactive: dose: 3.12 mg/kg/injection, schedule: Q01DX009 (ip), vehicle: saline 114 % of control | dose: 6.25 mg/kg/injection, schedule: Q01DX009 (ip), vehicle: saline 113 % of control | [6] 114 % of control

COc1cccc2c1C(=O)c1nccc3cc4c(c-2c13)OCO4
inactive: dose: 30.0 mg/kg/injection, schedule: Q01DX005 (ip), vehicle: Klucel (hydroxypropylcellulose) (HPC) 91 % of control | [1] 90 % of control | [2] 110 % of control

Cc1ccc2c(c1)C=CC(C#N)N2C(=O)OCc1ccccc1 (configuration not stated)
inactive: [7] 90 % of control | [8] 95 % of control

CC1(C)CSCC(C)(C)C2(C=CC=CC=N2)C1=O (configuration not stated)
inactive: dose: 50.0 mg/kg/injection, schedule: Q01DX005 (ip), vehicle: Klucel (hydroxypropylcellulose) (HPC) 107 % of control | dose: 100.0 mg/kg/injection, schedule: Q01DX005 (ip), vehicle: Klucel (hydroxypropylcellulose) (HPC) 115 % of control

OCc1c(CO)c2cccn2c2c1cnn2-c1ccccc1
inactive: [12] 100 % of control | [13] 90 % of control | [14] 89 % of control

CC(=O)OCC1(C)NC(=O)c2ccccc2O1 (configuration not stated)
inactive: [9] 109 % of control (2×) and 120 % of control | [10] 114 % of control and 118 % of control | [11] 100 % of control

CCOCC#CC(OCC)OCC
inactive: dose: 60.0 mg/kg/injection, schedule: Q01DX005 (ip), vehicle: saline 101 % of control | dose: 120.0 mg/kg/injection, schedule: Q01DX005 (ip), vehicle: saline 99 % of control | dose: 240.0 mg/kg/injection, schedule: Q01DX005 (ip), vehicle: saline 99 % of control

CCN(CC)Cc1c(C)nc2cc(N(C)C)ccc2c1Cl
inactive: [12] 103 % of control

O=C1NC2C3CC(c4ccccc43)C12 (configuration not stated)
inactive: [12] 105 % of control | [13] 109 % of control | [14] 108 % of control

NC(COc1ccccc1)Cc1ccccc1 (configuration not stated)
inactive: dose: 12.5 mg/kg/injection, schedule: Q04DX003 (ip), vehicle: saline 100 % of control | dose: 25.0 mg/kg/injection, schedule: Q04DX003 (ip), vehicle: saline 100 % of control | dose: 50.0 mg/kg/injection, schedule: Q04DX003 (ip), vehicle: saline 102 % of control | dose: 100.0 mg/kg/injection, schedule: Q04DX003 (ip), vehicle: saline 99 % of control
